# Laboratory results taken from patent US6737383B1, “Herbicidal oxadiazolidines” (priority 1999, dated 2004).
# Legend:
# giant foxtail = experiment: Test B pre/postemergence giant foxtail; type: in vivo, Setaria faberii
# How it was run: (§1)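 Herbicidal effect was estimated by eye on a ten-point control scale after plants spent twelve to sixteen days in a greenhouse following soil or foliar treatment. Foliar sprays targeted plants at one to four leaves; all doses were formulated in a non-phytotoxic solvent with surfactant.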
# surinam grass = experiment: Test B pre/postemergence surinam grass; type: in vivo, Brachiaria decumbens
# How it was run: as §1
# bedstraw = experiment: Test B pre/postemergence bedstraw; type: in vivo, Galium aparine
# How it was run: as §1
# cocklebur = experiment: Test B pre/postemergence cocklebur; type: in vivo, Xanthium strumarium
# How it was run: as §1
# sugar beet = experiment: Test B pre/postemergence sugar beet; type: in vivo, Beta vulgaris
# How it was run: as §1
# morningglory = experiment: Test B pre/postemergence morningglory; type: in vivo, Ipomoea hederacea
# How it was run: as §1
# crabgrass = experiment: Test B pre/postemergence crabgrass; type: in vivo, Digitaria sanguinalis
# How it was run: as §1
# pigweed = experiment: Test B pre/postemergence pigweed; type: in vivo, Amaranthus retroflexus
# How it was run: as §1
# wheat = experiment: Test B pre/postemergence wheat; type: in vivo, Triticum aestivum
# How it was run: as §1
# rape = experiment: Test B pre/postemergence rape; type: in vivo, Brassica napus
# How it was run: as §1
# corn = experiment: Test B pre/postemergence corn; type: in vivo, Zea mays
# How it was run: as §1
# velvetleaf = experiment: Test B pre/postemergence velvetleaf; type: in vivo, Abutilon theophrasti
# How it was run: as §1
# soybean = experiment: Test B pre/postemergence soybean; type: in vivo, Glycine max
# How it was run: as §1
# purple nutsedge = experiment: Test B pre/postemergence purple nutsedge; type: in vivo, Cyperus rotundus
# How it was run: as §1
# wild oat = experiment: Test B pre/postemergence wild oat; type: in vivo, Avena fatua
# How it was run: as §1
# blackgrass = experiment: Test B pre/postemergence blackgrass; type: in vivo, Alopecurus myosuroides
# How it was run: as §1
# [1] = Postemergence, Rate 62 g/ha, scale 0 to 10, 0 is no effect, 10 is complete control
# [2] = Postemergence, Rate 125 g/ha, scale of 0 to 10 where 0 is no effect and 10 is complete control
# [3] = Postemergence, Rate 500 g/ha, scale 0 (no effect) to 10 (complete control)
# [4] = Preemergence, Rate 250 g/ha, scale 0 (no effect) to 10 (complete control)
# [5] = Rate 62 g/ha, Preemergence, scale 0 to 10
# [6] = Rate 125 g/ha, Preemergence, scale 0 to 10 (0 no effect, 10 complete control)
# [7] = Rate 250 g/ha, Postemergence, scale 0 to 10, 0 is no effect, 10 is complete control
# [8] = Rate 500 g/ha, Preemergence, scale 0 to 10 (0 no effect, 10 complete control)
smiles,measurement,setting,value
C#CCn1c(=O)on(C(=O)N(c2ccc(F)cc2F)C(C)C)c1=O [Compound 764],"Plant response rating, Giant foxtail",giant foxtail; [1],3
same,Giant foxtail plant response rating,giant foxtail; [2],7
same,Giant foxtail plant response rating,giant foxtail; [3],8
same,Giant foxtail plant response rating,giant foxtail; [4],10
same,Giant foxtail plant response rating,giant foxtail; [5],10
same,Giant foxtail plant response rating,giant foxtail; [6],10
same,Giant foxtail plant response rating,giant foxtail; [7],8
same,Giant foxtail plant response rating,giant foxtail; [8],10
same,"Plant response rating, B. signalgrass",surinam grass; [1],0
same,B. signalgrass plant response rating,surinam grass; [2],0
same,B. signalgrass plant response rating,"surinam grass; Preemergence, Rate 62 g/ha, scale of 0 to 10 where 0 is no effect and 10 is complete control",8
same,B. signalgrass plant response rating,surinam grass; [4],9
same,B. signalgrass plant response rating,surinam grass; [6],7
same,B. signalgrass plant response rating,surinam grass; [7],2
same,B. signalgrass plant response rating,"surinam grass; Rate 500 g/ha, Postemergence, scale 0 to 10, 0 is no effect, 10 is complete control",3
same,B. signalgrass plant response rating,surinam grass; [8],10
same,"Plant response rating, Bedstraw",bedstraw; [1],0
same,Bedstraw plant response rating,bedstraw; [2],5
same,Bedstraw plant response rating,bedstraw; [3],5
same,Bedstraw plant response rating,bedstraw; [4],5
same,Bedstraw plant response rating,bedstraw; [5],0
same,Bedstraw plant response rating,bedstraw; [6],5
same,Bedstraw plant response rating,bedstraw; [8],8
same,"Plant response rating, Cocklebur",cocklebur; [1],0
same,Cocklebur plant response rating,cocklebur; [2],0
same,Cocklebur plant response rating,cocklebur; [3],5
same,Cocklebur plant response rating,cocklebur; [4],0
same,Cocklebur plant response rating,cocklebur; [5],0
same,Cocklebur plant response rating,cocklebur; [7],2
same,Cocklebur plant response rating,cocklebur; [8],8
same,"Plant response rating, Sugarbeets",sugar beet; [1],0
same,Sugarbeets plant response rating,sugar beet; [3],7
same,Sugarbeets plant response rating,sugar beet; [4],5
same,Sugarbeets plant response rating,sugar beet; [5],0
same,Sugarbeets plant response rating,sugar beet; [6],0
same,Sugarbeets plant response rating,sugar beet; [7],3
same,Sugarbeets plant response rating,sugar beet; [8],8
same,"Plant response rating, Morningglory",morningglory; [1],1
same,Morningglory plant response rating,morningglory; [2],1
same,Morningglory plant response rating,morningglory; [3],5
same,Morningglory plant response rating,morningglory; [4],0
same,Morningglory plant response rating,morningglory; [5],0
same,Morningglory plant response rating,morningglory; [7],2
same,Morningglory plant response rating,morningglory; [8],2
same,"Plant response rating, Crabgrass",crabgrass; [1],0
same,Crabgrass plant response rating,crabgrass; [2],6
same,Crabgrass plant response rating,crabgrass; [3],9
same,Crabgrass plant response rating,crabgrass; [4],10
same,Crabgrass plant response rating,crabgrass; [5],10
same,Crabgrass plant response rating,crabgrass; [6],10
same,Crabgrass plant response rating,crabgrass; [7],9
same,Crabgrass plant response rating,crabgrass; [8],10
same,"Plant response rating, Redroot pigweed",pigweed; [1],0
same,Redroot pigweed plant response rating,pigweed; [2],5
same,Redroot pigweed plant response rating,pigweed; [3],7
same,Redroot pigweed plant response rating,pigweed; [4],10
same,Redroot pigweed plant response rating,pigweed; [5],9
same,Redroot pigweed plant response rating,pigweed; [6],10
same,Redroot pigweed plant response rating,pigweed; [7],7
same,Redroot pigweed plant response rating,pigweed; [8],10
same,"Plant response rating, Wheat",wheat; [1],0
same,Wheat plant response rating,wheat; [5],0
same,Wheat plant response rating,wheat; [6],3
same,Wheat plant response rating,wheat; [7],7
same,Wheat plant response rating,wheat; [8],7
same,"Plant response rating, Rape",rape; [1],0
same,Rape plant response rating,rape; [2],0
same,Rape plant response rating,rape; [3],7
same,Rape plant response rating,rape; [4],9
same,Rape plant response rating,rape; [5],0
same,Rape plant response rating,rape; [6],0
same,Rape plant response rating,rape; [7],3
same,Rape plant response rating,rape; [8],10
same,"Plant response rating, Corn",corn; [1],0
same,Corn plant response rating,corn; [2],0
same,Corn plant response rating,corn; [3],4
same,Corn plant response rating,corn; [4],6
same,Corn plant response rating,corn; [5],0
same,Corn plant response rating,corn; [6],0
same,Corn plant response rating,corn; [7],0
same,Corn plant response rating,corn; [8],9
same,"Plant response rating, Velvetleaf",velvetleaf; [1],0
same,Velvetleaf plant response rating,velvetleaf; [3],4
same,Velvetleaf plant response rating,velvetleaf; [4],5
same,Velvetleaf plant response rating,velvetleaf; [5],3
same,Velvetleaf plant response rating,velvetleaf; [6],5
same,Velvetleaf plant response rating,velvetleaf; [7],4
same,Velvetleaf plant response rating,velvetleaf; [8],8
same,"Plant response rating, Soybean",soybean; [1],1
same,Soybean plant response rating,soybean; [3],4
same,Soybean plant response rating,soybean; [4],3
same,Soybean plant response rating,soybean; [5],0
same,Soybean plant response rating,soybean; [6],0
same,Soybean plant response rating,soybean; [7],3
same,Soybean plant response rating,soybean; [8],5
same,"Plant response rating, Nutsedge",purple nutsedge; [1],0
same,Nutsedge plant response rating,purple nutsedge; [2],0
same,Nutsedge plant response rating,purple nutsedge; [3],3
same,Nutsedge plant response rating,purple nutsedge; [4],0
same,Nutsedge plant response rating,purple nutsedge; [5],0
same,Nutsedge plant response rating,purple nutsedge; [6],0
same,Nutsedge plant response rating,purple nutsedge; [7],0
same,Nutsedge plant response rating,purple nutsedge; [8],4
same,"Plant response rating, Wild oats",wild oat; [1],0
same,Wild oats plant response rating,wild oat; [3],3
same,Wild oats plant response rating,wild oat; [4],6
same,Wild oats plant response rating,wild oat; [5],0
same,Wild oats plant response rating,wild oat; [6],3
same,Wild oats plant response rating,wild oat; [7],2
same,Wild oats plant response rating,wild oat; [8],7
same,"Plant response rating, Blackgrass",blackgrass; [1],3
same,Blackgrass plant response rating,blackgrass; [2],6
same,Blackgrass plant response rating,blackgrass; [3],8
same,Blackgrass plant response rating,blackgrass; [4],8
same,Blackgrass plant response rating,blackgrass; [5],7
same,Blackgrass plant response rating,blackgrass; [6],7
same,Blackgrass plant response rating,blackgrass; [7],6
same,Blackgrass plant response rating,blackgrass; [8],9
